In brackets after ≈: the same amount, converted by molar mass. Structures can show the parent of a compound that is named as a salt. Where two headings read alike, the source gives them in different places.
How the values were obtained:
Solubility = assay type: physicochemical
Pseudomonas aeruginosa H = experiment: minimum inhibitory concentration (MIC) by the agar dilution method, Pseudomonas aeruginosa H; assay type: cell-based; details: Brain heart infusion agar, 18 hrs after inoculation
Description: (§1) The minimum inhibitory concentration (MIC) of the FA-118O A, A1, B or B1 was determined by the agar dilution method, and the results are indicated in Table 5 below.
(§2) (1) Medium: Brain heart infusion agar
(§3) (2) Determined: 18 hrs after inoculation

[1] = system: Salmonella typhimurium IFO 12529; experiment: minimum inhibitory concentration (MIC) by the agar dilution method, Salmonella typhimurium IFO 12529; assay type: cell-based; details: Brain heart infusion agar, 18 hrs after inoculation
Description: as §1, §2, §3

[2] = system: Serratia marcescens IFO 12648; experiment: minimum inhibitory concentration (MIC) by the agar dilution method, Serratia marcescens IFO 12648; assay type: cell-based; details: 18 hrs after inoculation
Description: as §1, §2, §3

Escherichia coli P3478 = experiment: minimum inhibitory concentration (MIC) by the agar dilution method, Escherichia coli P3478; assay type: cell-based; details: Brain heart infusion agar, 18 hrs after inoculation
Description: as §1, §2, §3

Staphylococcus aureus = experiment: minimum inhibitory concentration (MIC) by the agar dilution method, Staphylococcus aureus; assay type: cell-based; details: Brain heart infusion agar, 18 hrs after inoculation
Description: as §1, §2, §3

Bacillus subtilis 17 A = experiment: minimum inhibitory concentration (MIC) by the agar dilution method, Bacillus subtilis 17 A; assay type: cell-based; details: Brain heart infusion agar, 18 hrs after inoculation
Description: as §1, §2, §3

Gram-positive bacteria = experiment: ability to inhibit the growth of Gram-positive bacteria (summary statement); assay type: cell-based; details: summary in words
Description: as §1

[3] = system: Bacillus subtilis PCI 219; experiment: minimum inhibitory concentration (MIC) by the agar dilution method, Bacillus subtilis PCI 219; assay type: cell-based; details: Brain heart infusion agar, 18 hrs after inoculation
Description: as §1, §2, §3

Escherichia coli W3110 = experiment: minimum inhibitory concentration (MIC) by the agar dilution method, Escherichia coli W3110; assay type: cell-based; details: Brain heart infusion agar, 18 hrs after inoculation
Description: as §1, §2, §3

Bacillus subtilis 45 T = experiment: minimum inhibitory concentration (MIC) by the agar dilution method, Bacillus subtilis 45 T; assay type: cell-based; details: Brain heart infusion agar, 18 hrs after inoculation
Description: as §1, §2, §3

tumor = experiment: antitumor activity (summary statement); details: summary in words
Description: (§4) The test was conducted in accordance with the method described in Cancer Chemotherapy Reports, Part 3, Vol. 3, No. 2, p. 9, September 1972. Mice inoculated intraperitoneally with 1×10^6 cells of P-388 were administered with the test compounds daily on days 1 to 5. The activity (T/C) of the test compounds is represented by the ratio of the median survival time of the treated group to that of the control group.
(§5) The tumor cell suspension was prepared from cells taken from ascites of rats to which 1×10^6 cells of Yoshida rat sarcoma had been inoculated before 3 to 5 days. The ascites was diluted with a medium which was constituted from 80 to 90% (v/v) Fischer's solution containing 20 to 10% (v/v) desensitized horse serum. One half milliliter of the cell suspension containing 5~20×10^4 cells thus prepared was placed in a small test tube. A substance to be tested was dissolved and diluted with the same medium and 0.5 ml of the diluted solution was added to the cell suspension. To the control tube was added 0.5 ml of the medium. 2 to 5 tubes were used for each experimental units. They were incubated statically at 37° C. for 2 to 3 days. After the incubation, growth was measured by observing the quantity of precipitated cells on the bottom of the test tube with the naked eyes. Growth inhibitory effect of a substance was expressed by the concentration pointing 50 percent growth of the control growth.

[4] = system: Klebsiella pneumoniae IFO 3512; experiment: minimum inhibitory concentration (MIC) by the agar dilution method, Klebsiella pneumoniae IFO 3512; assay type: cell-based; details: 18 hrs after inoculation
Description: as §1, §2, §3

P-388 Mice Leukemia = experiment: therapeutic effect against P-388 Mice Leukemia; assay type: in vivo; details: daily on days 1 to 5, 1×10^6 P-388 cells intraperitoneally
Description: as §4

Candida albicans = experiment: minimum inhibitory concentration (MIC) by the agar dilution method, Candida albicans; assay type: cell-based; details: Brain heart infusion agar, 18 hrs after inoculation
Description: as §1, §2, §3

Escherichia coli NIHJ = experiment: minimum inhibitory concentration (MIC) by the agar dilution method, Escherichia coli NIHJ; assay type: cell-based; details: Brain heart infusion agar, 18 hrs after inoculation
Description: as §1, §2, §3

Bacillus cereus IAM 1729 = experiment: minimum inhibitory concentration (MIC) by the agar dilution method, Bacillus cereus IAM 1729; assay type: cell-based; details: IAM1729, Brain heart infusion agar, 18 hrs after inoculation
Description: as §1, §2, §3

Yoshida rat sarcoma = experiment: growth inhibitory effect on Yoshida rat sarcoma cells; assay type: cell-based; details: for IC50: Rattus norvegicus, YOSHIDA, read-out: Growth Inhibitory Effect IC50
Description: as §5
IC50 : The concentration pointing 50% growth of the control growth.

[5] = system: Staphylococcus aureus 209 P; experiment: minimum inhibitory concentration (MIC) by the agar dilution method, Staphylococcus aureus 209 P; assay type: cell-based; details: Brain heart infusion agar, 18 hrs after inoculation
Description: as §1, §2, §3

[6] = Salmonella enterica, read-out: MIC
[7] = IFO12648, Brain heart infusion agar, read-out: MIC
[8] = Bacillus subtilis, PCI219, 18 h, read-out: MIC
[9] = IFO3512, Brain heart infusion agar, read-out: MIC
[10] = concentration pointing 50% growth of the control growth, 37° C., 2 to 3 days, Fischer's solution with horse serum

Row | Structure (SMILES) | Solubility in chloroform (Solubility) | Solubility in methanol (Solubility) | Solubility in n-hexane (Solubility) | MIC (Pseudomonas aeruginosa H; read-out: MIC) | MIC [1, 6] | MIC [2, 7] | MIC (Escherichia coli P3478; read-out: MIC) | MIC (Staphylococcus aureus; read-out: MIC) | MIC (Bacillus subtilis 17 A; read-out: MIC) | ability to inhibit the growth of Gram-positive bacteria (Gram-positive bacteria) | MIC [3, 8] | MIC (Escherichia coli W3110; read-out: MIC) | MIC (Bacillus subtilis 45 T; read-out: MIC) | antitumor activity (tumor) | MIC [4, 9] | Activity (T/C), ratio of median survival time of treated group to control group (P-388 Mice Leukemia; 0.25 mg/kg/day) | Activity (T/C), ratio of median survival time of treated group to control group (P-388 Mice Leukemia; 0.5 mg/kg/day) | Activity (T/C), ratio of median survival time of treated group to control group (P-388 Mice Leukemia; 1.0 mg/kg/day) | MIC (Candida albicans; read-out: MIC) | Growth Inhibitory Effect IC50 (Yoshida rat sarcoma; [10]) | also measured
1 | CC(O)CC(OC(C)CO)OC1C(N)CC(OC2CC(O)(C(C)O)Cc3c(O)c4c(c(O)c32)C(=O)c2c(O)cccc2C4=O)OC1C (centres unmarked) [FA-1180 B] | soluble | freely soluble | slightly soluble | > 100 µg/mL | > 100 µg/mL | > 100 µg/mL | > 100 µg/mL | 50 µg/mL (≈ 75.6 µM) | 12.5 µg/mL (≈ 18.9 µM) | strong ability to inhibit the growth of Gram-positive bacteria | 6.25 µg/mL (≈ 9.45 µM) | > 100 µg/mL | 0.4 µg/mL (≈ 0.605 µM) | antitumor activity | > 100 µg/mL | 143% | 162% | 190% | > 100 µg/mL |  | MIC (Escherichia coli NIHJ; read-out: MIC): > 100 µg/mL; MIC (Bacillus cereus IAM 1729): 25 µg/mL (≈ 37.8 µM); IC50 (Yoshida rat sarcoma; [10]): 0.01 µg/mL (≈ 0.0151 µM); MIC ([5]; read-out: MIC): 50 µg/mL (≈ 75.6 µM)
2 | CC(=O)C1(O)Cc2c(O)c3c(c(O)c2C(OC2CC(N)C(OC(CC(C)O)OC(C)CO)C(C)O2)C1)C(=O)c1c(O)cccc1C3=O (centres unmarked) [FA-1180 A1] |  |  |  |  |  |  |  |  |  | strong ability to inhibit the growth of Gram-positive bacteria |  |  |  | antitumor activity |  |  |  |  |  | 10^-3 μg/ml | MIC (Pseudomonas aeruginosa H): > 100 ppm; MIC [1]: > 100 ppm; MIC ([2]; Brain heart infusion agar): > 100 ppm; MIC (Escherichia coli P3478): > 100 ppm; MIC (Staphylococcus aureus): 12.5 ppm; MIC (Bacillus subtilis 17 A): 1.56 ppm; MIC [3]: 1.56 ppm; MIC (Escherichia coli W3110): > 100 ppm; MIC (Bacillus subtilis 45 T): < 0.2 ppm; MIC ([4]; Brain heart infusion agar): > 100 ppm; MIC (Candida albicans): > 100 ppm; MIC (Escherichia coli NIHJ): > 100 ppm; MIC [5]: 12.5 ppm
3 | O=c1[nH]cc(F)c(=O)[nH]1 [5-FU, reference compound] |  |  |  |  |  |  |  |  |  |  |  |  |  |  |  |  |  |  |  |  | Activity (T/C), ratio of median survival time of treated group to control group (P-388 Mice Leukemia; 20 mg/kg/day): 198%
4 | CC(=O)C1(O)Cc2c(O)c3c(c(O)c2C(OC2CC(N)C(OC(CC(C)O)OC(C)CO)C(C)O2)C1)C(=O)c1c(O)cccc1C3=O (centres unmarked) [FA-1180 A] | soluble | freely soluble | slightly soluble | > 100 µg/mL | > 100 µg/mL | > 100 µg/mL | > 100 µg/mL | 12.5 µg/mL (≈ 18.9 µM) | 1.56 µg/mL (≈ 2.36 µM) | strong ability to inhibit the growth of Gram-positive bacteria | 1.56 µg/mL (≈ 2.36 µM) | > 100 µg/mL | < 0.2 µg/mL | antitumor activity | > 100 µg/mL | 148% | 167% | 205% | > 100 µg/mL | 10^-2 μg/ml | MIC (Escherichia coli NIHJ; read-out: MIC): > 100 µg/mL; MIC (Bacillus cereus IAM 1729): 3.12 µg/mL (≈ 4.74 µM); MIC ([5]; read-out: MIC): 12.5 µg/mL (≈ 18.9 µM)
5 | COc1cccc2c1C(=O)c1c(O)c3c(c(O)c1C2=O)C[C@@](O)(C(=O)CO)C[C@@H]3O[C@H]1C[C@H](N)[C@H](O)[C@H](C)O1 [Adriamycin hydrochloride, reference compound] |  |  |  |  |  |  |  |  |  |  |  |  |  |  |  |  |  |  |  |  | IC50 (Yoshida rat sarcoma): 0.01 µg/mL
6 | CC(O)CC(OC(C)CO)OC1C(N)CC(OC2CC(O)(C(C)O)Cc3c(O)c4c(c(O)c32)C(=O)c2c(O)cccc2C4=O)OC1C (centres unmarked) [FA-1180 B1] |  |  |  |  |  |  |  |  |  | strong ability to inhibit the growth of Gram-positive bacteria |  |  |  | antitumor activity |  | 151% | 168% | 179% |  | 10^-2 μg/ml | MIC (Pseudomonas aeruginosa H): > 100 ppm; MIC [1]: > 100 ppm; MIC ([2]; Brain heart infusion agar): > 100 ppm; MIC (Escherichia coli P3478): > 100 ppm; MIC (Staphylococcus aureus): 50 ppm; MIC (Bacillus subtilis 17 A): 12.5 ppm; MIC [3]: 3.125 ppm; MIC (Escherichia coli W3110): > 100 ppm; MIC (Bacillus subtilis 45 T): 0.4 ppm; MIC ([4]; Brain heart infusion agar): > 100 ppm; MIC (Candida albicans): > 100 ppm; MIC (Escherichia coli NIHJ): > 100 ppm; MIC [5]: 50 ppm

— US4387218A, “Anthracycline antibiotics FA-1180 B and B1, or salts thereof” (priority 1979, dated 1983)
